In assay [1] the target is T1, FAAH (Homo sapiens, UniProt O00519).
T1 sequence (O00519 1-579): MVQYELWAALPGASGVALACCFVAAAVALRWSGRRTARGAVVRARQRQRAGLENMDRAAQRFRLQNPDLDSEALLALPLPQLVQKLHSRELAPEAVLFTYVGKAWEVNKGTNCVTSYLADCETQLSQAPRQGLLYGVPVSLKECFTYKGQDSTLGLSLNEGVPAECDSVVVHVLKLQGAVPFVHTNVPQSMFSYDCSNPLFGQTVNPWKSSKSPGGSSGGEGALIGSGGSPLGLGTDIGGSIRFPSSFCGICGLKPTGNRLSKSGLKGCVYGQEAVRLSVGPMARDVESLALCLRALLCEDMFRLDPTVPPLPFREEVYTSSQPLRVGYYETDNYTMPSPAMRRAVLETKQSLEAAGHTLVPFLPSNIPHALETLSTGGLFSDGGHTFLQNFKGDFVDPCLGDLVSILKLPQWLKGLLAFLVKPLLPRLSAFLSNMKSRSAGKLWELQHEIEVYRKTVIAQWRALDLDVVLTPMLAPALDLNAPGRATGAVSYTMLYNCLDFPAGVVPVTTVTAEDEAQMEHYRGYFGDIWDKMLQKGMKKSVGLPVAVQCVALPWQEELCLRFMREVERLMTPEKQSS
As to the kind of experiment: Assay Method 1: human FAAH assay (3H-anandamide hydrolysis in cell homogenate). In kind it is biochemical. The arrangement: expressed in transfected cells; host or cells: SK-N-MC cells stably transfected with human FAAH cDNA (G418 selection); alternatively T84 cell pellets. The settings on record: read-out: Assay 1 IC50. As to the method: A. Transfection of Cells with Human FAAH
A 10-cm tissue culture dish with a confluent monolayer of SK-N-MC cells was split 2 days (d) prior to transfection. Using sterile technique, the media was removed and the cells were detached from the dish by the addition of trypsin. One fifth of the cells were then placed onto a new 10-cm dish. Cells were grown in a 37° C. incubator with 5% CO2 in Minimal Essential Media Eagle with 10% Fetal Bovine Serum. After 2 d, cells were approximately 80% confluent. These cells were removed from the dish with trypsin and pelleted in a clinical centrifuge. The pellet was re-suspended in 400 μL complete media and transferred to an electroporation cuvette with a 0.4 cm gap between the electrodes. Supercoiled human FAAH cDNA (1 μg) was added to the cells and mixed. The voltage for the electroporation was set at 0.25 kV, and the capacitance was set at 960 μF. After electroporation, the cells were diluted into complete media (10 mL) and plated onto four 10-cm dishes. Because of the variability in the efficiency of electroporation, four different concentrations of cells were plated. […] The cells were allowed to recover for 24 h before adding the selection media (complete media with 600 μg/mL G418). After 10 d, dishes were analyzed for surviving colonies of cells. Dishes with well-isolated colonies were used. Cells from individual colonies were isolated and tested.
T84 frozen cell pellets or transfected SK-N-MC cells (contents of 1×15 cm culture dishes) were homogenized in 50 mL of FAAH assay buffer (125 mM Tris, 1 mM EDTA, 0.2% Glycerol, 0.02% Triton X-100, 0.4 mM Hepes, pH 9). The assay mixture consisted of 50 μL of the cell homogenate, 10 μL of the test compound, and 40 μL of anandamide [1-^3H-ethanolamine] (^3H-AEA, Perkin-Elmer, 10.3 Ci/mmol), which was added last, for a final tracer concentration of 80 nM. The reaction mixture was incubated at rt for 1 h. During the incubation, 96-well Multiscreen filter plates (catalog number MAFCNOB50; Millipore, Bedford, Mass., USA) were loaded with 25 of activated charcoal (Multiscreen column loader, catalog number MACL09625, Millipore) and washed once with 100 μL of MeOH. Also during the incubation, 96-well DYNEX MicroLite plates (catalog number NL510410) were loaded with 100 μL of MicroScint40 (catalog number 6013641, Packard Bioscience, Meriden, Conn., USA). After the 1 h incubation, 60 μL of the reaction mixture were transferred to the charcoal plates, which were then assembled on top of the DYNEX plates using Centrifuge Alignment Frames (catalog number MACF09604, Millipore). The unbound labeled ethanolamine was centrifuged through to the bottom plate (5 min at 2000 rpm), which was preloaded with the scintillant, as described above. The plates were sealed and left at rt for 1 h before counting on a Hewlett Packard TopCount.
Compounds were tested in free base or trifluoroacetic acid salt forms.

The target in assay [2] is T2, Rat FAAH (Rattus norvegicus, UniProt P97612).
T2 construct: expressed in transfected cells; host or cells: SK-N-MC cells stably transfected with rat FAAH cDNA (G418 selection)
T2 sequence (P97612 1-579): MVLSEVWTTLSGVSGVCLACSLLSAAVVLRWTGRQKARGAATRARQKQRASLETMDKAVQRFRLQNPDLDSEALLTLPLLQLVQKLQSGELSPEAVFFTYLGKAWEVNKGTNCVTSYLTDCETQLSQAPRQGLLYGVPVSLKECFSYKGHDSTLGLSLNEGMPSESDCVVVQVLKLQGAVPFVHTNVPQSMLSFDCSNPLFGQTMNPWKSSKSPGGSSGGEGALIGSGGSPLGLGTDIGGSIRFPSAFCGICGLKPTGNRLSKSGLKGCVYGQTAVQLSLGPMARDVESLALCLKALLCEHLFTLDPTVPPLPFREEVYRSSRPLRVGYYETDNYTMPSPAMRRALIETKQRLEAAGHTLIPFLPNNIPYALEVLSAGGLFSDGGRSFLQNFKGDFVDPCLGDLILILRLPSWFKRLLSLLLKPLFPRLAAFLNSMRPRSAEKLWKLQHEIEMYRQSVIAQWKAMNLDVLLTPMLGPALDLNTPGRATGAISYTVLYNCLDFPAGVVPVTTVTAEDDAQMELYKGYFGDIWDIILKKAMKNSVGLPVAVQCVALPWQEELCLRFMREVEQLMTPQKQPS
The assay is described as follows: Assay Method 2: rat FAAH assay (3H-anandamide hydrolysis in cell homogenate). In kind it is biochemical. The settings on record: read-out: Assay 2 IC50. The method, then:
A. Transfection of Cells with Rat FAAH A 10-cm tissue culture dish with a confluent monolayer of SK-N-MC cells was split 2 days (d) prior to transfection. Using sterile technique, the media was removed and the cells were detached from the dish by the addition of trypsin. One fifth of the cells were then placed onto a new 10-cm dish. Cells were grown in a 37° C. incubator with 5% CO2 in Minimal Essential Media Eagle with 10% Fetal Bovine Serum. After 2 d, cells were approximately 80% confluent. These cells were removed from the dish with trypsin and pelleted in a clinical centrifuge. The pellet was re-suspended in 400 μL complete media and transferred to an electroporation cuvette with a 0.4 cm gap between the electrodes. Supercoiled rat FAAH cDNA (1 μg) was added to the cells and mixed. The voltage for the electroporation was set at 0.25 kV, and the capacitance was set at 960 μF. After electroporation, the cells were diluted into complete media (10 mL) and plated onto four 10-cm dishes. Because of the variability in the efficiency of electroporation, four different concentrations of cells were plated. The ratios used were 1:20, 1:10, and 1:5, with the remainder of the cells being added to the fourth dish. The cells were allowed to recover for 24 h before adding the selection media (complete media with 600 μg/mL G418). After 10 d, dishes were analyzed for surviving colonies of cells. Dishes with well-isolated colonies were used. Cells from individual colonies were isolated and tested. […] B. FAAH Assay T84 frozen cell pellets or transfected SK-N-MC cells (contents of 1×15 cm culture dishes) were homogenized in 50 mL of FAAH assay buffer (125 mM Tris, 1 mM EDTA, 0.2% Glycerol, 0.02% Triton X-100, 0.4 mM Hepes, pH 9). […] The reaction mixture was incubated at rt for 1 h. During the incubation, 96-well Multiscreen filter plates (catalog number MAFCNOB50; Millipore, Bedford, Mass., USA) were loaded with 25 of activated charcoal (Multiscreen column loader, catalog number MACL09625, Millipore) and washed once with 100 μL of MeOH. Also during the incubation, 96-well DYNEX MicroLite plates (catalog number NL510410) were loaded with 100 μL of MicroScint40 (catalog number 6013641, Packard Bioscience, Meriden, Conn., USA). After the 1 h incubation, 60 μL of the reaction mixture were transferred to the charcoal plates, which were then assembled on top of the DYNEX plates using Centrifuge Alignment Frames (catalog number MACF09604, Millipore). The unbound labeled ethanolamine was centrifuged through to the bottom plate (5 min at 2000 rpm), which was preloaded with the scintillant, as described above. The plates were sealed and left at rt for 1 h before counting on a Hewlett Packard TopCount. Results for compounds tested in these assays are summarized in Table 1, as an average of results obtained. Compounds were tested in free base or trifluoroacetic acid salt forms. Where activity is shown as greater than (>) a particular value, the value is the solubility limit of the compound in the assay medium or the highest concentration tested in the assay.

Counter-ions that a name gives are not always drawn.

As usually defined, the IC50 is the concentration needed to halve the response being measured.

With `O=C(Nc1cccnc1)N1CCC2(CCCN2Cc2cccc(Oc3ccc(Cl)cc3)c2)C1` (stereo not shown) [Example 7, 1-[3-(4-Chloro-phenoxy)-benzyl]-1,7-diaza-spiro[4.4]nonane-7-carboxylic acid pyridin-3-ylamide], the IC50 in assay [1] stood at 9 µM.
Regarding `O=C(Nc1cccnc1)N1CCCC2(CN(Cc3cccc(Oc4ccc(Cl)cc4)c3)C2)C1` [Example 26, 2-(3-(4-chlorophenoxy)benzyl)-N-(pyridin-3-yl)-2,6-diazaspiro[3.5]nonane-6-carboxamide], in assay [2], the IC50 amounted to 6 µM.
Same read-out and setting: then `O=C(Nc1cnc2ccccc2c1)N1CCCC2(CN(Cc3cccc(Oc4ccc(Cl)cc4)c3)C2)C1` [Example 32, 2-(3-(4-chlorophenoxy)benzyl)-N-(quinolin-3-yl)-2,6-diazaspiro[3.5]nonane-6-carboxamide], with 0.01 µM; and `O=C(Nc1ccc(-n2cnnc2)nc1)N1CC2(CCN(Cc3cccc(Oc4ccc(Cl)cc4)c3)CC2)C1` [Example 47, 7-[3-(4-Chloro-phenoxy)-benzyl]-2,7-diaza-spiro[3.5]nonane-2-carboxylic acid (6-[1,2,4]triazol-4-yl-pyridin-3-yl)-amide, trifluoroacetic acid salt], with more than 10 µM.
The same measure, in the same setting: then `O=C(Nc1nnn[nH]1)N1CC2(CCN(Cc3cccc(Oc4ccc(Cl)cc4)c3)CC2)C1` [Example 51, 7-[3-(4-Chloro-phenoxy)-benzyl]-2,7-diaza-spiro[3.5]nonane-2-carboxylic acid (1H-tetrazol-5-yl)-amide, trifluoroacetic acid salt], with 0.2 µM.
Same read-out and setting: then `O=C(Nc1cnc(-c2ccccc2)nc1)N1CC2(CCN(Cc3cccc(Oc4ccc(Cl)cc4)c3)CC2)C1` [Example 83, 7-(3-(4-chlorophenoxy)benzyl)-N-(2-phenylpyrimidin-5-yl)-2,7-diazaspiro[3.5]nonane-2-carboxamide, trifluoroacetic acid salt], with 0.02 µM; and `O=C(Nc1cccnc1)N1CC2(CCN(Cc3ccc4c(c3)OC(F)(F)O4)CC2)C1` [Example 87, 7-(2,2-Difluoro-benzo[1,3]-dioxol-5-ylmethyl)-2,7-diaza-spiro[3.5]nonane-2-carboxylic acid pyridin-3-ylamide], with more than 10 µM.
As for `O=C(Nc1cnc2[nH]ccc2c1)N1CC2(CCN(Cc3ccc4c(c3)OC(F)(F)O4)CC2)C1` [Example 89, 7-(2,2-Difluoro-benzo[1,3]dioxol-5-ylmethyl)-2,7-diaza-spiro[3.5]nonane-2-carboxylic acid (1H-pyrrolo[2,3-b]pyridin-5-yl)-amide], the IC50 in assay [1] is 0.5 µM.
With `O=C(Nc1cccnc1)N1CC2(CCN(Cc3ccccc3Cl)CC2)C1` [Example 98, 7-(2-Chloro-benzyl)-2,7-diaza-spiro[3.5]nonane-2-carboxylic acid pyridin-3-ylamide], in assay [2], the concentration for half-maximal inhibition (IC50) was more than 10 µM.
Turning to `O=C(Nc1cccnc1)N1CC2(CCN(Cc3cccc(Cl)c3)CC2)C1` [Example 99, 7-(3-Chloro-benzyl)-2,7-diaza-spiro[3.5]nonane-2-carboxylic acid pyridin-3-ylamide], the IC50 in assay [2] was more than 10 µM.
Regarding `O=C(Nc1cccnc1)N1CC2(CCN(Cc3ccc(C(F)(F)F)cc3)CC2)C1` [Example 102, N-(pyridin-3-yl)-7-(4-(trifluoromethyl)benzyl)-2,7-diazaspiro[3.5]nonane-2-carboxamide], in assay [2], the IC50 is more than 10 µM.
For the molecule `O=C(Nc1cccnc1)N1CC2(CCN(Cc3ccc(Cl)c(C(F)(F)F)c3)CC2)C1` [Example 109, 7-(4-chloro-3-(trifluoromethyl)benzyl)-N-(pyridin-3-yl)-2,7-diazaspiro[3.5]nonane-2-carboxamide], the IC50 in assay [2] was more than 10 µM.
Consider `O=C(Nc1cccnc1)N1CC2(CCN(Cc3cccc(Oc4ccc(OCC(F)(F)F)cc4)c3)CC2)C1` [Example 128, 7-{3-[4-(2,2,2-Trifluoro-ethoxy)-phenoxy]-benzyl}-2,7-diaza-spiro[3.5]nonane-2-carboxylic acid pyridin-3-ylamide], for which the IC50 in assay [1] is 8 µM.

The values above are taken from US20120083476A1, “HETEROARYL-SUBSTITUTED SPIROCYCLIC DIAMINE UREA MODULATORS OF FATTY ACID AMIDE HYDROLASE” (Janssen Pharmaceutica NV, priority 2009, published 2012).
